{"source": "patent EP1649856A2", "about": "“Use of pimecrolimus for selective immunomodulation” (Novartis AG, priority 2001, dated 2002)", "key": {"pulmonary eosinophilia": {"system": "pulmonary eosinophilia", "experiment": "Antigen-induced pulmonary eosinophilia in actively sensitized rats", "assay_type": "in vivo, Brown Norway Rats", "details": "given orally as a microemulsion or dissolved in Neoral placebo", "from_the_text": "Another study looked at the effects of oral administration of pimecrolimus on antigen-induced pulmonary eosinophilia in actively sensitized Brown Norway Rats."}, "promoter for human IL-2": {"system": "promoter for human IL-2", "experiment": "IL-2 reporter gene assay", "assay_type": "cell-based", "details": "concentration required for 50% inhibition", "from_the_text": "This assay method is disclosed and enabled in U.S. Patent No. 5,897,990, which is hereby incorporated by reference in its entirety and for all purposes.\nThe cell line is preferentially a human T-cell or macrophage cell line, e.g., a Jurkat cell line, preferably selected for high native production of the desired gene product, for example, producing IL-2 in response to stimulation in the case of an IL-2 reporter gene assay. The reporter gene is any gene expressing a readily observable product, e.g., an enzyme marker such as β-galactosidase or luciferase, or any other suitable enzyme marker. For example, where the enzyme marker is β-galactosidase, the reporter gene is, e.g., a bacterial lacZ gene; where the enzyme marker is luciferase, the gene is, e.g., a Phorinus luciferase gene. Another suitable marker is the gene for the green fluorescent protein produced by the bioluminescent jellyfish, e.g., as described in Chalfie et al., Science, Vol. 263, pp. 802-805 (1994). The promoter gene is a promoter gene for a cytokine or protein for which transcription is stimulated or suppressed by the drug to be monitored.\nBlood samples from the patient are diluted, their effect on gene expression in the above described system is measured, and the assay is standardized using known concentrations of the immunosuppressive material."}, "[1]": {"assay_type": "in vitro ADME, human", "from_the_text": "Pimecrolimus, when applied topically, permeates less through human (and animal) skin than, for example, FK506 and corticosteroids by factors of 9 and 60-120, respectively, indicating a lower potential to enter the systemic circulation and thus to exert systemic side effects. As is well-known, glucocorticoids are non-selective agents and are therefore associated with many systemic actions and a wide variety of side effects, whether applied topically or systemically. This is in contrast to pimecrolimus."}, "[2]": {"system": "SCID mice reconstituted with CD4^+CD45RB^HI T cells", "experiment": "SCID-IBD mouse model, treatment from day 1 for 4 weeks", "assay_type": "in vivo", "details": "for loss of original BW: 4 weeks post-T cell transfer (controls lost 15-18%); for colitis, histological inflammation of colon (score 0-8): 29 days", "from_the_text": "A well-established animal model for IBD exists (see Leach et al., Am. J. Pathol., Vol. 148, No. 5, pp. 1503-1515 (1996), and Powrie et al., Int. Immunol., Vol. 5, No. 11, pp. 1461-1471 (1993)). It is known that the transfer of syngeneic, naive T lymphocytes (CD4^+CD45RB^HI) into SCID mice results in a severe colitis and wasting disease, SCID-IBD. Histopathologically, features of both CD and UC are represented in this model which has been used throughout the 1990s to bring the understanding of the pathoetiology of this disease of immune dysregulation in man to its present status. There is no other animal model of IBD which is considered relevant for the human disease, both in mechanism and in validity of clinical treatment.\nIn this study, SCID mice reconstituted with CD4^+CD45RB^HI T lymphocytes were used. These mice are known to develop chronic colitis with characteristics similar to human IBD, as described above.\nIn this study, SCID mice were reconstituted with 2 x 10^5 CD4^+CD45RB^HI T cells and then treated with pimecrolimus (30, 60 and 100 mg/kg/day) or vehicle daily p.o. for 4 weeks. […] BW was monitored throughout. On termination, blood was withdrawn, spleen, mesenteric lymph nodes (MLN) and colon were removed. Serum haptoglobin levels were measured (ELISA), colitis was assessed histologically and lymphocyte and neutrophil numbers were calculated from FACS analysis of blood, spleen and MLN cell suspensions.\nIn order to determine the efficacy of ASM981 treatment in preventing intestinal mucosal damage in SCID-IBD mice, a histological examination of the colon sections was performed according to defined morphological parameters. All colon sections were assessed according to a scheme awarding degrees of severity governed by the extent of cell infiltration and inflammation with a score of 8 being the maximum."}, "[3]": {"system": "allergic contact dermatitis (ACD)", "experiment": "Mouse model of allergic contact dermatitis (ACD)", "assay_type": "in vivo", "details": "oral, same doses"}, "[4]": {"experiment": "Clinical study of oral pimecrolimus in psoriasis patients (efficacy and safety)", "experimental": "A clinical study was initiated with an oral formulation of pimecrolimus to treat psoriatic patients. Pimecrolimus was evaluated as treatment for psoriasis using an oral dose of 60 mg (30 mg b.i.d) during a 4-week clinical study. The cohort included 10 patients; 8 received the treatment and 2 received a placebo.\nThe dose used in the study was 60 mg/day, given as 30 mg b.i.d. To make this dose the 20 mg tablets were cut in half using a special cutter (Tablettenteiler NR.96) so as to obtain 30 mg of pimecrolimus or a matched amount of placebo."}, "[5]": {"system": "eosinophil influx into the lungs", "experiment": "Aeroallergen induced eosinophil influx into the lungs of sensitized mice", "assay_type": "in vivo", "details": "oral administration", "from_the_text": "Direct evidence on the efficacy on pimecrolimus in asthma is provided by studies showing the effect on lung eosinophilia rats. One study looked at the inhibitory effect of pimecrolimus on the aeroallergen induced eosinophil influx into the lungs of sensitized mice."}, "[6]": {"details": "dose range 30-100 mg/kg/day p.o."}}, "data": [{"smiles": "CC[C@@H]1/C=C(\\C)C[C@H](C)C[C@H](OC)[C@H]2O[C@@](O)(C(=O)C(=O)N3CCCC[C@H]3C(=O)O[C@H](/C(C)=C/[C@@H]3CC[C@H](Cl)[C@H](OC)C3)[C@H](C)[C@@H](O)CC1=O)[C@H](C)C[C@@H]2OC", "note": "[pimecrolimus, 33-epichloro-33-desoxy-ascomycin]", "values": [{"measurement": "antigen-induced pulmonary eosinophilia", "setting": "pulmonary eosinophilia", "result": "effective"}, {"measurement": "IC50", "setting": "promoter for human IL-2", "result": 1.5, "unit": "nM"}, {"measurement": "factor by which it permeates less through skin than FK506", "setting": "[1]", "result": 9}, {"measurement": "factor by which it permeates less through skin than corticosteroids", "setting": "[1]", "result": "60-120"}, {"measurement": "loss of original BW", "setting": "[2]; 30 mg/kg/day p.o.", "result": 7.1, "unit": "%"}, {"measurement": "colitis, histological inflammation of colon (score 0-8)", "setting": "[2]; 30 mg/kg/day p.o.", "result": "moderate to severe"}, {"measurement": "block of neutrophil infiltration into the colon (MPO activity)", "setting": "[2]; 60 mg/kg/day p.o.", "result": 72, "unit": "%"}, {"measurement": "loss of original BW", "setting": "[2]; 60 mg/kg/day p.o.", "result": 8.8, "unit": "%"}, {"measurement": "colitis, histological inflammation of colon (score 0-8)", "setting": "[2]; 60 mg/kg/day p.o.", "result": "moderate"}, {"measurement": "mice with macroscopically normal feces (diarrhea)", "setting": "[2]; 100 mg/kg/day p.o.", "result": "Approximately half of the mice"}, {"measurement": "neutrophil infiltration into the colon (MPO activity)", "setting": "[2]; 100 mg/kg/day p.o.", "result": "completely blocked"}, {"measurement": "loss of original BW", "setting": "[2]; 100 mg/kg/day p.o.", "result": 3.2, "unit": "%"}, {"measurement": "colitis, histological inflammation of colon (score 0-8)", "setting": "[2]; 100 mg/kg/day p.o.", "result": "only mildly inflamed colons"}, {"measurement": "reduction of Haptoglobin production (serum)", "setting": "[2]; [6]", "result": "68-92%"}, {"measurement": "reduction of blood neutrophilia", "setting": "[2]; [6]", "result": "85-96%"}, {"measurement": "reduction of spleen neutrophilia", "setting": "[2]; [6]", "result": "74-83%"}, {"measurement": "lymphocyte numbers in MLN", "setting": "[2]; up to 100 mg/kg/day p.o.", "result": "significant reduction"}, {"measurement": "lymphocyte numbers in blood or spleen", "setting": "[2]; up to 100 mg/kg/day p.o.", "result": "did not significantly affect"}, {"measurement": "efficacy compared with FK506", "setting": "[3]", "result": "equipotent"}, {"measurement": "clinical effect on psoriasis", "setting": "[4]; oral 60 mg (30 mg b.i.d), 4-week study, 8 treated patients", "result": "reduction of psoriasis"}, {"measurement": "tolerability in man", "setting": "[4]; oral dosing up to 60 mg (or 30 mg b.i.d.) over 28 days", "result": "well-tolerated"}, {"measurement": "eosinophil count in the lung and eosinophil peroxidase activity", "setting": "[5]", "result": "able to reduce"}]}]}
